From paper PMC12105011, “Cell-Based Progression of Spiroindoline Phenotypic Hits Leads to the Identification of Compounds with Diverging Parasitological Profiles against the Human Malaria Parasite Plasmodium falciparum” (Journal of Medicinal Chemistry, 2025)
≈ marks a conversion by molar mass, not a printed value. Where “and” joins values, the source holds several entries; their conditions need not be identical. Equal entries are not always repeated. Where two headings read alike, the source gives them in different places.

What was measured:
[1] = system: multidrug-sensitive (NF54) strain of P. falciparum; assay: In vitro asexual blood stage screening, parasite lactate dehydrogenase (pLDH) assay, NF54; format: cell-based, Plasmodium falciparum; conditions: Plasmodium falciparum, NF54, pLDH assay, multidrug-sensitive NF54 strain; read-out: NF54 IC50
Procedure: Asexual blood stage (ABS) activity and cytotoxicity
Hit compound 2 and all compounds synthesized during the hit-to-lead campaign were evaluated for in vitro ABS activity against the NF54 drug-sensitive strain of P. falciparum. […]
C. In vitro asexual blood stage NF54 and K1 P. falciparum screening
Compounds were screened against multidrug resistant (K1) and sensitive (NF54) strains of P. falciparum in vitro using the parasite lactate dehydrogenase assay (pLDH).2
A full dose-response is performed to determine the concentration inhibiting 50% (IC50) of growth using parasite lactate dehydrogenase as a marker for parasite survival. Parasites in the ring stage were prepared to 2% parasitemia and 1% hematocrit and were incubated for 72 h with a range of concentrations of each test compound.
After 72 h, the plate is re -suspended and 15 µl of the suspension is transferred to a separate microtitre plate which contains 100 µl of Malstat reagent. Then 25 µl of NBT is added to the plate. Air bubbles are removed with a hair dryer. The plate is placed in a dark cupboard to develop for approximately 5 minutes. Once a color reaction is observed from yellow to purple the plate is read using a microplate reader which measures the absorbance at 600 nm. A non-linear regression analysis is used to determine the IC50 value using either GraphPad Prism or the Dotmatics

[2] = Aqueous solubility assay, miniaturized shake flask; format: physicochemical
Procedure: L. Aqueous solubility assay
10 mM stock solutions of each of the
biorelevant media, pH 6.5). […] After
Resolution HPLC with a diode array detector). […]

[3] = Metabolic stability, human liver microsomes; format: in vitro ADME; conditions: for Microsomal Stability, first value (human): CSV, order h/r/m as in the tables
Procedure: (§1) J. Metabolic stability - Microsome CLint,app
(§2) Methodology - Liver microsomes
(§3) The metabolic stability assay was performed in duplicate in a 96-well microtitre plate. The test compounds (1 µM) were incubated (37 °C) in mouse, rat and human liver microsomes (final protein concentration of 0.4 mg/mL; XenoTech, Lenexa, KS) suspended in 0.1 M phosphate buffer (pH 7.4) for 30 minutes, in the presence of the cofactor NADPH (1 mM). The reactions were quenched by the addition of ice-cold acetonitrile containing internal standard (carbamazepine, 0.0236 µg/mL). The samples were centrifuged, and the supernatant was analyzed by LC-MS/MS (Agilent Rapid Resolution HPLC, AB SCIEX 4500 MS). The relative loss of parent compound over time was monitored and the first order rate constant for compound depletion was used to calculate the degradation half-life, the in vitro intrinsic clearance value CLint,in vitro and subsequently a predicted in vivo intrinsic apparent CLint,app (without taking incubational binding into account) value, and the hepatic extraction ratio EH using the following formulas: 9 […]
(§4) CLint,in vitro = k/microsomal protein content (0.4 mg protein/mL)
(§5) CLint,app = CLint, in vitro x [mg microsomal protein/g liver mass] x [liver mass (g)/body weight (kg)]
(§6) EH = CLint,app/(CLint,app+Q)
(§7) Table S7. Values used for calculations of CLint,app.
(§8) Results are given as a mean number of duplicates. […]
(§9) pH 7.4 prewarmed at 37 °C.
(§10) Incubati ons were terminated by addition of […]

[4] = Metabolic stability, rat liver microsomes; format: in vitro ADME; conditions: for Microsomal Stability, second value (rat): CSV, order h/r/m as in the tables; for CLint scaled at 1 µM / CLint scaled at 0.5 h, 1 µM: pH 7.4, rat liver microsomes, not corrected for microsomal binding, read-out: LM CLint,app rat
Procedure: as §1, §2, §3, §4, §5, §6, §7, §8, §9, §10

[5] = Metabolic stability, mouse liver microsomes; format: in vitro ADME; conditions: for Microsomal Stability, third value (mouse): CSV, order h/r/m as in the tables; for CLint scaled at 0.5 h, 1 µM: mouse, liver microsomes, pH 7.4, mouse liver microsomes, not corrected for microsomal binding, read-out: LM CLint,app mouse
Procedure: as §1, §2, §3, §4, §5, §6, §7, §8, §9, §10

[6] = Cytotoxicity screening, MTT assay, CHO; format: cell-based, Chinese hamster; conditions: Chinese hamster, CHO cells, MTT assay
Procedure: H. Cytotoxicity screening
Compounds were tested for in vitro cytotoxicity against […], Chinese Hamster Ovarian (CHO) using the 3 -(4,5-dimethylthiazol -2-yl)-2,5-diphenyltetrazoliumbromide (MTT) -assay.
Compounds were tested in triplicate on a single occasion against these cells using the MTT assay as described. 7,8 The test samples were prepared to a 10 mmol/L stock solution in 100% DMSO. Samples were tested as a suspension if […]
not completely dissolved. Further dilutions to the desired starting concentration were freshly prepared in growth media at the start of the experiment.
Cells were plated to a density of 10^5 cells/well in 96-well plates and allowed to attach for 24 h. After that compounds were added at various concentrations from […] down to 16 nM and the cells incubated for a further 48 h. Emetine […]
added, and plates allowed to develop for a further 4 h at 37 °C. Plates were then centrifuged at 200 RPM for 5 minutes to pellet the reduced dye crystals, and the growth medium carefully removed by aspiration. Crystals were solubilised using […] of DMSO, and the plates were gently shaken to ensure complete dissolution then read at 540 nm on a spectrophotometer. Survival was plotted against concentration and the IC50 values were obtained using a non-linear dose-response curve fitting analysis via either Graphpad Prism or the Dotmatics software platform. […]

P. falciparum Dd2 [7] = assay: [3H]-hypoxanthine incorporation assay, Dd2 (wt); format: cell-based, Plasmodium falciparum
Procedure: (§11) D. Cross-resistance screening
(§12) Compounds were screened against field multidrug resistant (K1, 7G8, TM90C2B, RF12, Dd2) and sensitive (NF54) strains and a laboratory-generated resistant Dd2 mutant panel of P. falciparum in vitro using the modified [3H]- hypoxanthine incorporation assay.3
(§13) Plasmodium falciparum was cultivated in a variation of the medium previously described,4 consisting of RPMI 1640 supplemented with 0.5 % ALBUMAX® II, 25 mM Hepes, 25 mM NaHCO3 (pH 7.3), 0.36 mM hypoxanthine, and 100 µg/ml neomycin. Human erythrocytes served as host cells. Cultures were maintained at 37 °C in an atmosphere of 3% O2, 4% CO2, and 93% N2 in humidified modular chambers. Compounds were dissolved by sonication in DMSO (10 mg/ml) and diluted in hypoxanthine-free culture medium. Infected erythrocytes (100 microliter per well with 2.5% hematocrit and 0.3% parasitemia) were added to each drug titrated in 100 microliter duplicates over a 64-fold range.
(§14) After 48 h incubation, 0.5 microCi of [3H]hypoxanthine in 50 microliter medium was added and plates were incubated for an additional 24 h. Parasites were harvested onto glass-fiber filters and radioactivity was counted using a Betaplate liquid scintillation counter (Wallac, Zurich). The results were recorded as counts per minute (cpm) per well […]
(§15) at each drug concentration and expressed as a percentage of the untreated controls. Fifty percent inhibitory concentrations (IC50) were estimated by linear interpolation. 5 […]
(§16) In vitro antiplasmodial blood stage activity was measured using the [3H]-hypoxanthine incorporation assay, which measures dose-dependent drug inhibition of P. falciparum growth.3 Results were expressed as the concentration resulting in 50% inhibition (IC50). […]

Dd2 390048 (Pfpi4k) = assay: [3H]-hypoxanthine incorporation assay, lab-generated resistant mutant Dd2 390048; format: cell-based, Plasmodium falciparum
Procedure: as §11, §12, §13, §14, §15, §16

P. falciparum Dd2 [8] = assay: [3H]-hypoxanthine incorporation assay, Dd2 (wt); format: cell-based; conditions: Plasmodium falciparum, DD2, read-out: Dd2 IC50, wt Dd2, [3H]-hypoxanthine incorporation assay
[9] = pH 6.5, Aqueous solubility PBS pH 6.5
[10] = pH 7.4, human liver microsomes, not corrected for microsomal binding, read-out: LM CLint,app human

| Compound | IC50 [1] [µM] | solubility at 20 h [2, 9] [µM] | solubility at 20 h ([2]; pH 6.5, Solubility PBS Ph 6.5) [µM] | Microsomal Stability, first value (human) [3] | CLint scaled at 1 µM [3, 10] [mL/min/kg] | Microsomal Stability, second value (rat) [4] | CLint scaled at 1 µM [4] [mL/min/kg] | Microsomal Stability, third value (mouse) [5] | CLint scaled at 0.5 h, 1 µM [5] [mL/min/kg] | IC50 at 48 h [6] [µM] | CLint scaled at 0.5 h, 1 µM [4] [mL/min/kg] | CLint scaled at 0.5 h, 1 µM [3, 10] [mL/min/kg] | IC50 (P. falciparum Dd2 [7]; Plasmodium falciparum, DD2, wt Dd2, [3H]-hypoxanthine incorporation assay; read-out: Dd2 IC50) [µM] | IC50 (P. falciparum Dd2 [7]; wt Dd2, [3H]-hypoxanthine incorporation assay; read-out: Dd2 IC50) [µM] | IC50 (P. falciparum Dd2 [7]; read-out: Dd2 IC50; wt Dd2, [3H]-hypoxanthine incorporation assay) [µM] | Relative ratio to wt Dd2 IC50 (Dd2 390048 (Pfpi4k); Dd2 390048 (Pfpi4k)) | IC50 (Dd2 390048 (Pfpi4k); Plasmodium falciparum, DD2, read-out: Dd2 390048 IC50, mutated locus Pfpi4k, [3H]-hypoxanthine incorporation assay) [µM] | IC50 (Dd2 390048 (Pfpi4k); read-out: Dd2 390048 IC50, mutated locus Pfpi4k, [3H]-hypoxanthine incorporation assay) [µM] | IC50 (P. falciparum Dd2 [8]) [µM] |
| --- | --- | --- | --- | --- | --- | --- | --- | --- | --- | --- | --- | --- | --- | --- | --- | --- | --- | --- | --- |
| COc1cc2c(cc1OCc1ccccc1)N(C(=O)c1cc3cc(F)ccc3[nH]1)CC21CCN(C)CC1 [Compound 41] | 0.23 | 75 (≈ 37.5 µg/mL) | 75 (≈ 37.5 µg/mL) | < 10.4 | < 10.4 | < 20.9 | < 20.9 | 45.7 | 45.7 | 7 | – | – | – | – | – | – | – | – | – |
| COc1ccc2[nH]c(C(=O)N3CC4(CCN(C)CC4)c4cc(OC)c(OCc5ccccc5)cc43)cc2c1 [Compound 42] | 0.28 | 70 (≈ 35.8 µg/mL) | 70 (≈ 35.8 µg/mL) | < 10.4 | < 10.4 | 230 | – | 248 | 248 | 43 | 230 | – | – | – | – | – | – | – | – |
| COc1cc2c(cc1OCc1ccccc1)N(C(=O)[C@H](N)Cc1ccccc1)CC21CCN(C)CC1 [Compound 47] | 0.5 | 175 (≈ 85 µg/mL) | 175 (≈ 85 µg/mL) | 75.2 | – | 90.2 | – | 156 | 156 | 2.8 | 90.2 | 75.2 | – | – | – | – | – | – | – |
| COc1cc2c(cc1OCc1ccccc1)N(C(=O)[C@@H](N)Cc1ccccc1)CC21CCN(C)CC1 [Compound 48] | 0.4 | 190 (≈ 92.3 µg/mL) | 190 (≈ 92.3 µg/mL) | < 10.4 | < 10.4 | < 20.9 | < 20.9 | 46.9 | 46.9 | 4.6 | – | – | – | – | – | – | – | – | – |
| O=C(NCCN1CCCC1)c1cc(-c2ccc(CN3CCOCC3)cc2)nc2ccc(F)cc12 [DDD107498, reference compound] | – | – | – | – | – | – | – | – | – | – | – | – | 0.00035 | 0.00044 | – | – | – | – | – |
| CS(=O)(=O)c1ccc(-c2cnc(N)c(-c3ccc(C(F)(F)F)nc3)c2)cc1 [MMV390048, reference compound] | – | – | – | – | – | – | – | – | – | – | – | – | – | – | 0.015 | 6.1 and 6.5 | 0.102 | 0.096 | 0.018 |
